# Test results: ChEMBL document CHEMBL4414548 (J Med Chem, 2019)
# pIC50, pKi: −log10 of the molar value.
# Assays:
# Mus musculus [1] = experiment: Inhibition of IL12/IL18-induced IFNgamma production in C57BL/6 mouse at 0.3 mg/kg, po pretreated for 1 hr followed by IL12 stimulation and subsequent IL18 addition and measured after 3 hrs relative to control; assay type: functional; conditions: C57BL/6, po
# [2] = Terminal drug concentration in CD40-induced B6 CB17 mouse serum at 25 mg/kg, po BID administered as nanosuspension measured 24 hrs post-last dose; assay type: ADME, organism-based; conditions: read-out: Drug uptake
# JAK1/TYK2 = JAK1/TYK2 (Homo sapiens, UniProt P23458+P29597); experiment: Inhibition of TYK2/JAK1 in IFNalpha-stimulated human Kit225 cells by steady-glo luciferase assay
# Mus musculus [3] = experiment: Inhibition of IL12/IL18-induced IFNgamma production in C57BL/6 mouse at 10 mg/kg, po pretreated for 1 hr followed by IL12 stimulation and subsequent IL18 addition and measured after 3 hrs relative to control; assay type: functional; conditions: C57BL/6, po
# [4] = target: Non-receptor tyrosine-protein kinase TYK2 (Mus musculus, UniProt Q9R117); experiment: Inhibition of TYK2 JH2 domain in mouse whole blood assessed as inhibition of IFNalpha-induced STAT1 phosphorylation preincubated for 1 hr followed by IFNalpha stimulation and measured after 15 mins by fluorescence assay; assay type: tissue-based
# [5] = Permeability across apical to basolateral side in human Caco2 cells; assay type: ADME, cell-based; conditions: Caco-2, read-out: permeability
# [6] = Ratio of drug concentration in IL12/IL18-induced C57BL/6 mouse serum at 10 mg/kg, po to IC50 for TYK2 JH2 domain in mouse whole blood; assay type: ADME, organism-based; conditions: in vivo
# [7] = Cmax in mouse at 10 mg/kg, po after 7 hrs; assay type: ADME, organism-based; set-up: dose 10 mg/kg, route oral; conditions: in vivo
# [8] = Drug concentration in IL12/IL18-induced C57BL/6 mouse serum at 10 mg/kg, po pretreated for 1 hr followed by IL12 stimulation and subsequent IL18 addition and measured after 5 hrs; assay type: ADME, organism-based; conditions: read-out: Drug uptake
# [9] = Terminal drug concentration in CD40-induced B6 CB17 mouse serum at 250 mg/kg, po BID administered as nanosuspension measured 24 hrs post-last dose; assay type: ADME, organism-based; conditions: read-out: Drug uptake
# [10] = Efflux ratio of permeability in human Caco2; assay type: ADME, cell-based; conditions: Caco-2
# [11] = AUClast in mouse at 10 mg/kg, po after 7 hrs; assay type: ADME, organism-based; set-up: time < 7 hr, dose 10 mg/kg, route oral; conditions: in vivo
# [12] = Drug concentration in IL12/IL18-induced C57BL/6 mouse serum at 1 mg/kg, po pretreated for 1 hr followed by IL12 stimulation and subsequent IL18 addition and measured after 5 hrs; assay type: ADME, organism-based; conditions: read-out: Drug uptake
# [13] = Drug concentration in IL12/IL18-induced C57BL/6 mouse serum at 3 mg/kg, po pretreated for 1 hr followed by IL12 stimulation and subsequent IL18 addition and measured after 5 hrs; assay type: ADME, organism-based; conditions: read-out: Drug uptake
# [14] = target: Tyrosine-protein kinase JAK2 (Homo sapiens, UniProt O60674); experiment: Inhibition of JAK2 JH1 domain (unknown origin)
# [15] = target: T1, Non-receptor tyrosine-protein kinase TYK2 (Homo sapiens, UniProt P29597); experiment: Inhibition of TYK2 JH2 (unknown origin) by morrison titration assay; conditions: read-out: Ki(app)
# [16] = Ratio of drug concentration in IL12/IL18-induced C57BL/6 mouse serum at 1 mg/kg, po to IC50 for TYK2 JH2 domain in mouse whole blood; assay type: ADME, organism-based; conditions: in vivo
# [17] = Drug metabolism in C57BL/6 mouse plasma assessed as amide formation at 0.3 to 10 mg/kg, po; assay type: ADME, organism-based; conditions: in vivo
# Mus musculus [18] = experiment: Inhibition of IL12/IL18-induced IFNgamma production in C57BL/6 mouse at 3 mg/kg, po pretreated for 1 hr followed by IL12 stimulation and subsequent IL18 addition and measured after 3 hrs relative to control; assay type: functional; conditions: C57BL/6, po
# [19] = target: Tyrosine-protein kinase JAK1 (Homo sapiens, UniProt P23458); experiment: Inhibition of JAK1 JH1 domain (unknown origin)
# [20] = Half life in cynomolgus monkey liver microsomes; assay type: ADME, Macaca fascicularis, Microsome
# [21] = Half life in human liver microsomes; assay type: ADME, Microsome
# Mus musculus [22] = experiment: Inhibition of IL12/IL18-induced IFNgamma production in C57BL/6 mouse at 1 mg/kg, po pretreated for 1 hr followed by IL12 stimulation and subsequent IL18 addition and measured after 3 hrs relative to control; assay type: functional; conditions: C57BL/6, po
# [23] = Half life in mouse liver microsomes; assay type: ADME, Microsome
# [24] = Partition coefficient, log P of compound by HPLC analysis; assay type: physicochemical; conditions: octanol/water
# [25] = target: T1, Non-receptor tyrosine-protein kinase TYK2; experiment: Inhibition of fluorescein-labeled kinase tracer binding to His-TVMV-fused TYK2 JH2 domain (575 to 869 residues) (unknown origin) measured after 90 mins by HTRF assay
# [26] = Half life in dog liver microsomes; assay type: ADME, Canis lupus familiaris, Microsome
# [27] = Half life in rat liver microsomes; assay type: ADME, Microsome
# [28] = Ratio of drug concentration in IL12/IL18-induced C57BL/6 mouse serum at 0.3 mg/kg, po to IC50 for TYK2 JH2 domain in mouse whole blood; assay type: ADME, organism-based; conditions: in vivo
# [29] = Drug concentration in IL12/IL18-induced C57BL/6 mouse serum at 0.3 mg/kg, po pretreated for 1 hr followed by IL12 stimulation and subsequent IL18 addition and measured after 5 hrs; assay type: ADME, organism-based; conditions: read-out: Drug uptake
# [30] = target: T1, Non-receptor tyrosine-protein kinase TYK2; experiment: Inhibition of TYK2 JH1 domain (unknown origin)
# [31] = Terminal drug concentration in CD40-induced B6 CB17 mouse serum at 80 mg/kg, po BID administered as nanosuspension measured 24 hrs post-last dose; assay type: ADME, organism-based; conditions: read-out: Drug uptake
# [32] = Ratio of drug concentration in IL12/IL18-induced C57BL/6 mouse serum at 3 mg/kg, po to IC50 for TYK2 JH2 domain in mouse whole blood; assay type: ADME, organism-based; conditions: in vivo
# [33] = target: T1, Non-receptor tyrosine-protein kinase TYK2; experiment: Inhibition of TYK2 JH2 domain in human whole blood assessed as inhibition of IFNalpha-induced STAT5 phosphorylation preincubated for 1 hr followed by IFNalpha stimulation and measured after 15 mins by fluorescence assay; assay type: tissue-based
# T1 sequence (P29597 whole entry, the tested form may be a part): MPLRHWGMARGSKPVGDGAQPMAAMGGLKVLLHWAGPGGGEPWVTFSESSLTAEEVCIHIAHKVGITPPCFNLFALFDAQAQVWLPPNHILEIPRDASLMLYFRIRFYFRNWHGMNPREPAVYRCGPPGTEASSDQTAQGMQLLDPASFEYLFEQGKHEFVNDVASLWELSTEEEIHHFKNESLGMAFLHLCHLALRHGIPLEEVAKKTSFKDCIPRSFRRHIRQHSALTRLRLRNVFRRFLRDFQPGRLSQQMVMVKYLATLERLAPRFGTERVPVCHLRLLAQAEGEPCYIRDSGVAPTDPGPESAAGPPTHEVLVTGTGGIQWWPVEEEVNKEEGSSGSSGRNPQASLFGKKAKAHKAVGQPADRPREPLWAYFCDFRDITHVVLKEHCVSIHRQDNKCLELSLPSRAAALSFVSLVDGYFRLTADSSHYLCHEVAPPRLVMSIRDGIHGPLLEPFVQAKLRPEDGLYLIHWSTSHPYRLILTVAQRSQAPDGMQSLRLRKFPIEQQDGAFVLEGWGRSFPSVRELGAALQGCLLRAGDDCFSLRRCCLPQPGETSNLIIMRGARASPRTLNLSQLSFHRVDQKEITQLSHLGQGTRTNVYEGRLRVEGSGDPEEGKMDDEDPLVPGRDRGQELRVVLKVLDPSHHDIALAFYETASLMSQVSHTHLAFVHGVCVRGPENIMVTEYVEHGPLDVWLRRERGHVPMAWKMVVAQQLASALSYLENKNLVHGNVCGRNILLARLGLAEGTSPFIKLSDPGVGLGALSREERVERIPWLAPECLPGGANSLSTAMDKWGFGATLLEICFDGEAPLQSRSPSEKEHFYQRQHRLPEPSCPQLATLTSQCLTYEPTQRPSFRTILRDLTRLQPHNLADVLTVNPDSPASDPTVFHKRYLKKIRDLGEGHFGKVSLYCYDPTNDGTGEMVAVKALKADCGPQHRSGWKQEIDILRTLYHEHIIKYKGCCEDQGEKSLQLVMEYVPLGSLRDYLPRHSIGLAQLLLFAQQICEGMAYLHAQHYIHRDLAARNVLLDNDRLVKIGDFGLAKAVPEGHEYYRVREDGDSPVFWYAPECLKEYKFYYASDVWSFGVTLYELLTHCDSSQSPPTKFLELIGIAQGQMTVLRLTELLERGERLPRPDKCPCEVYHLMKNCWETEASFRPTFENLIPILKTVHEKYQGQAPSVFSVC
# Tyrosine-protein kinase JAK2, sequence (O60674 whole entry, the tested form may be a part): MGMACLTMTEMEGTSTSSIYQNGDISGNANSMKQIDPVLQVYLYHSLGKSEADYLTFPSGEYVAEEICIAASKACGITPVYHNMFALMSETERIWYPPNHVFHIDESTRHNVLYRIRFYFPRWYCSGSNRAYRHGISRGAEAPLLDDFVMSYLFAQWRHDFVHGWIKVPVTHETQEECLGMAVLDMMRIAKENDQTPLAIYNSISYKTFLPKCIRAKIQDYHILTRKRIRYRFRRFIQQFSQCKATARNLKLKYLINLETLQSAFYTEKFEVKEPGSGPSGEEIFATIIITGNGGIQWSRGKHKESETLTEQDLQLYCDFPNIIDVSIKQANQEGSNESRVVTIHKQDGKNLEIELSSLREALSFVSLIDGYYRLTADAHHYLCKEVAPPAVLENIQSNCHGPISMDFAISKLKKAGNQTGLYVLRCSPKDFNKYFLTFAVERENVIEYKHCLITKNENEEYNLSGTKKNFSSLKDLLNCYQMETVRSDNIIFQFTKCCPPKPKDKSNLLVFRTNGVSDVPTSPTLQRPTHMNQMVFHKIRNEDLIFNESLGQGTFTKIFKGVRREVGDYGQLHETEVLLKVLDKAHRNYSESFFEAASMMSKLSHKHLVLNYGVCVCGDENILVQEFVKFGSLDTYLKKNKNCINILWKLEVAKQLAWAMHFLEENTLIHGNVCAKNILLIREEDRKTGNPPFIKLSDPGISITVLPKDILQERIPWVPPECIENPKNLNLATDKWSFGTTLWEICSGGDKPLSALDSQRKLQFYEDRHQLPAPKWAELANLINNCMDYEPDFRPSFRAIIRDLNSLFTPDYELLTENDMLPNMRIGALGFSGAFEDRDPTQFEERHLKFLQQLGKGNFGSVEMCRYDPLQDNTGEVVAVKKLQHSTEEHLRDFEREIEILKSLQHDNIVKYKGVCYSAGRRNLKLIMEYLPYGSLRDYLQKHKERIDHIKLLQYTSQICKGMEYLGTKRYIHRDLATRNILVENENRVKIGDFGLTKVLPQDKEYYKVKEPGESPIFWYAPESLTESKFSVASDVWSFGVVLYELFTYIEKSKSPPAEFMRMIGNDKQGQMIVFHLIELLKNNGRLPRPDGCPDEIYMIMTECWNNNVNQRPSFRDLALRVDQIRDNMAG
# Non-receptor tyrosine-protein kinase TYK2 (Mus musculus, UniProt Q9R117), sequence (Q9R117 whole entry, the tested form may be a part): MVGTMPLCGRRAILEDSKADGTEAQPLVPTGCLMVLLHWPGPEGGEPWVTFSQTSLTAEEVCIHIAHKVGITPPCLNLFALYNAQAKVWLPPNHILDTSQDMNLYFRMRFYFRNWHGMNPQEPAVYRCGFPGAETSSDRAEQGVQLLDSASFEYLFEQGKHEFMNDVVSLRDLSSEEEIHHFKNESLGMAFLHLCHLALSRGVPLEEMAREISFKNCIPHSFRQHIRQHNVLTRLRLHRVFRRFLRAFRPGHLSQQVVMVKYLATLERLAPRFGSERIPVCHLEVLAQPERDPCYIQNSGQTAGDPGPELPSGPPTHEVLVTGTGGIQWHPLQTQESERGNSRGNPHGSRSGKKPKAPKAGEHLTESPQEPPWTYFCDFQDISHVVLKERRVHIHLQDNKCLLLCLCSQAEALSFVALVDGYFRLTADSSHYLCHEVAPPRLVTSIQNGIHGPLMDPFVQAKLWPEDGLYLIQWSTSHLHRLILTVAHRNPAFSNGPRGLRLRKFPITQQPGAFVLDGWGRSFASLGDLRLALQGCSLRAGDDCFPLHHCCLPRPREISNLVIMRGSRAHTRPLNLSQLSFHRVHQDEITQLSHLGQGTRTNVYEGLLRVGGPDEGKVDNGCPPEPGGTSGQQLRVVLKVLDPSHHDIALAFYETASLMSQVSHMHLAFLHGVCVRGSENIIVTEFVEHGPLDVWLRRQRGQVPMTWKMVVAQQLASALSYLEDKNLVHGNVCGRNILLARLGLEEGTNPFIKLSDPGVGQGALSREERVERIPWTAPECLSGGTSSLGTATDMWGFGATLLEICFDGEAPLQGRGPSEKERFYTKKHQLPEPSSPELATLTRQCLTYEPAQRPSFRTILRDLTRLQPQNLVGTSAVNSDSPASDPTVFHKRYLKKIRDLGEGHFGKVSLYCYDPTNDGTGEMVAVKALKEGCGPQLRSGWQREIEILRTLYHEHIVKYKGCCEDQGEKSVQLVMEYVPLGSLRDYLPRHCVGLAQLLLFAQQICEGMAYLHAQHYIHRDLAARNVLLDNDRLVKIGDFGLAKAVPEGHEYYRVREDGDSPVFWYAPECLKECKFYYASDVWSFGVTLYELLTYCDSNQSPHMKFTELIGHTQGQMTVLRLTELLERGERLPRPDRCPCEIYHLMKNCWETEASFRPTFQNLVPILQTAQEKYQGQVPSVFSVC
# JAK1/TYK2, sequence (P23458 whole entry): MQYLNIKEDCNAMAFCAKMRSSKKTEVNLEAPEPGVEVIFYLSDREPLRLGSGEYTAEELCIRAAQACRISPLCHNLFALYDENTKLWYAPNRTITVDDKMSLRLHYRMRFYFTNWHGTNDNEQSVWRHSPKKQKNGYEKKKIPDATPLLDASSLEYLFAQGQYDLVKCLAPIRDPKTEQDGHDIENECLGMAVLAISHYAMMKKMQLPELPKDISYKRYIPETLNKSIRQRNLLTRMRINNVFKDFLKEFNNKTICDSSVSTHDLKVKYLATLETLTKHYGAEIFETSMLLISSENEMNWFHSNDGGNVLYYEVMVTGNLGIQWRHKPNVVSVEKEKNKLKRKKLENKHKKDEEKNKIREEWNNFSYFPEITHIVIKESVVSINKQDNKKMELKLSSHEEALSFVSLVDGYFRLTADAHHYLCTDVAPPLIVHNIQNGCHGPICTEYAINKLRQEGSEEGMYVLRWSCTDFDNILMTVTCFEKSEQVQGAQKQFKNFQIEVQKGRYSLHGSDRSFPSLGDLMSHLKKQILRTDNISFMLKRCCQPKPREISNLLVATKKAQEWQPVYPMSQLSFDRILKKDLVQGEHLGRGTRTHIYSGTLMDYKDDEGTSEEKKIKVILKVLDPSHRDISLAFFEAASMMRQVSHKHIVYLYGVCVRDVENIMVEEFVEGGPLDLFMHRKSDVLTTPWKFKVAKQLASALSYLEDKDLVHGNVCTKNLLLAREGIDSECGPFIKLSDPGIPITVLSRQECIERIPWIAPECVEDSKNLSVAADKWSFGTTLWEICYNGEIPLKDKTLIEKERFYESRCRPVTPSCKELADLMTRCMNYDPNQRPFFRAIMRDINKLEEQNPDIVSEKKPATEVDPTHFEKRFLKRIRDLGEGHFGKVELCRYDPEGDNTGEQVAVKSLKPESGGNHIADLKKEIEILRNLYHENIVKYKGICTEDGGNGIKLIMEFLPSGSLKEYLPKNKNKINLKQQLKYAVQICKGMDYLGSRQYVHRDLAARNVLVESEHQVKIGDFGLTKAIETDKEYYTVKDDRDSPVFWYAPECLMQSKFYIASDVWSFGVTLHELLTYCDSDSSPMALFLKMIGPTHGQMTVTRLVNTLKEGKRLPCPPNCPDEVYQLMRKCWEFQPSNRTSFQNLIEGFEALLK
# JAK1/TYK2, sequence (P29597 whole entry): as the sequence (P29597 whole entry, the tested form may be a part) above
# Tyrosine-protein kinase JAK1, sequence (P23458 whole entry, the tested form may be a part): as the sequence (P23458 whole entry) above
structure (smiles),measurement,setting,value
[2H]C([2H])([2H])NC(=O)c1nnc(Nc2ccccn2)cc1Nc1ccccc1S(C)(=O)=O,inhibition in vivo at 0.3 mg/kg,Mus musculus [1],13%
same,concentration at 24 h,[2],12 nM
same,pIC50,JAK1/TYK2,9.28
same,inhibition in vivo at 10 mg/kg,Mus musculus [3],91%
same,pIC50,[4],6.92
same,Papp A→B,[5],28 ×10⁻⁶ cm/s
same,Ratio,[6],4
same,Cmax,[7],10500 nM
same,concentration at 5 h,[8],503 nM
same,concentration at 24 h,[9],77 nM
same,efflux ratio,[10],2.1
same,AUC(0-t) at 7 h,[11],24.3 µM·h
same,concentration at 5 h,[12],69 nM
same,concentration at 5 h,[13],133 nM
same,pIC50,[14],< 4.30
same,pKi,[15],10.15
same,Ratio,[16],0.5
same,Drug metabolism,[17],Metabolite_Notdetected
same,inhibition in vivo at 3 mg/kg,Mus musculus [18],77%
same,pIC50,[19],< 4.40
same,half-life,[20],4 min
same,half-life,[21],48 min
same,inhibition in vivo at 1 mg/kg,Mus musculus [22],56%
same,half-life,[23],46 min
same,logP,[24],2.45
same,pIC50,[25],9.28
same,half-life,[26],19 min
same,half-life,[27],49 min
same,Ratio,[28],0.2
same,concentration at 5 h,[29],24 nM
same,pIC50,[30],< 4.30
same,concentration at 24 h,[31],67 nM
same,Ratio,[32],1
same,pIC50,[33],6.89
